From article PMC5268466, “Monofluorophosphate Blocks Internal Polysaccharide Synthesis in Streptococcus mutans” (PLoS ONE, 2017)

Biological target: T1, S. mutans ADP-Glc PPase (GlgC/GlgD) (Streptococcus mutans, UniProt M9TIK1)
T1 sequence (M9TIK1 1-381): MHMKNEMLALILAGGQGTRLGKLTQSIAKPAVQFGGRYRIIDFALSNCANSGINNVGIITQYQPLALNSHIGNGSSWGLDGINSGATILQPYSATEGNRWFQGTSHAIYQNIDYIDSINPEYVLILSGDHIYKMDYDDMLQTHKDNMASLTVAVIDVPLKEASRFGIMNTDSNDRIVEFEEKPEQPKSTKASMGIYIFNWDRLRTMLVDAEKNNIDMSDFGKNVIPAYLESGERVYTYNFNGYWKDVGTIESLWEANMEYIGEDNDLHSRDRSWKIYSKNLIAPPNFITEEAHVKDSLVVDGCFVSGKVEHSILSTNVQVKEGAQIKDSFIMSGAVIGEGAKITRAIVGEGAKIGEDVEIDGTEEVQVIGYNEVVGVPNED
T1 sequence (M9TG57 1-377 partner): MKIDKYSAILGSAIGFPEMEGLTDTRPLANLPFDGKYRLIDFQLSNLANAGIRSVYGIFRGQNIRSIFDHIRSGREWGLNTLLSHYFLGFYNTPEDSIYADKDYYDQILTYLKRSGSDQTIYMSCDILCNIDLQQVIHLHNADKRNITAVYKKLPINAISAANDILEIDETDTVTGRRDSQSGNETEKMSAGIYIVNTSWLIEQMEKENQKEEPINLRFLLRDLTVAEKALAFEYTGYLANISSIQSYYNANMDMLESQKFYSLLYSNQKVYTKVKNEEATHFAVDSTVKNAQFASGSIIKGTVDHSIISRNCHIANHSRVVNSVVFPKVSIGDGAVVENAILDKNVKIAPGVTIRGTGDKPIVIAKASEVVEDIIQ
Conditions: 2500 µM, pH 8.0, 37 C, allosteric

With `O=P(O)(O)O` [Pi, orthophosphate] the “No Fru-1,6-bisP / Activity (% remaining activity)” value was 15 ± 2%.
